Like-named read-outs stand apart in the source and are kept apart here.
Assay: Multicenter, open-label, Phase 1a/b study of HC-7366 in subjects with advanced solid tumors (safety, PK)
Assay type: in vivo
Conditions: for AUC(0-t) / Vd/F / Tmax / Cmax / half-life / % AUCextrap / CL/F / DAUC0-24 / DAUC0-last / DAUC0-∞ / DCmax / tlast / LR / AUC / AUC(0-inf): human; for AUC(0-t) / Vd/F / Tmax / Cmax / half-life / AUC / AUC(0-inf): plasma; for AUC(0-t) / Vd/F / Tmax / Cmax / half-life: po; for Vd/F: read-out: Vz/F; for LR: linearity ratio; for AUC: read-out: AUC0-τ
Text: Identify the maximum tolerated dose (MTD) and/or recommended Phase 2 dose (RP2D) of HC-7366, and evaluate the safety, tolerability, and dose-limiting toxicities (DLTs) of HC-7366 using Form III of the potassium salt of the compound of formula (I) (see Example 6, also referred to within this example as HC-7366-K), in subjects with advanced solid tumors, including: • a. occurrence of DLTs • b. incidence and severity of treatment-emergent adverse events (TEAEs) and treatment related TEAEs according to National Cancer Institute Common Terminology Criteria for Adverse Events (NCI CTCAE) v 5.0 • c. incidence of TEAEs leading to premature discontinuation • d. incidence of laboratory abnormalities, based on NCI CTCAE grades of hematology, serum chemistry, and urinalysis test results • e. incidence of abnormalities observed in 12 lead ECG parameters • f. incidence of abnormalities observed in vital signs measurements
Determine plasma concentration and pharmacokinetic (PK) parameters following treatment with HC-7366 using Form III of the potassium salt of the compound of formula (I) (see Example 6, also referred to within this example as HC-7366-K).
Preliminarily assess the potential antitumor activity of HC-7366 in terms of response rate, disease stabilization, and survival outcomes by assessing: • a. Overall response rate (ORR) to HC-7366 using response evaluation criteria in solid tumors (iRECIST) • b. Duration of response (DOR) to HC-7366 using iRECIST • c. Time to treatment failure (TTF) • d. Progression free survival (PFS) using iRECIST • e. Overall survival (OS)
This is a first in human, multicenter, open label, Phase 1a and 1b dose-escalation and dose-expansion study to establish the maximum tolerated dose, recommended Phase 2 dose, and evaluate the safety and tolerability of QD oral dosing of HC 7366 in a dose escalating fashion in subjects with advanced solid tumors. Up to 40 subjects were enrolled into the Phase 1a dose-escalation part of the study. The study was conducted in the United States at approximately 7 to 10 sites.
Every effort was made to ensure approximately 50% of all subjects enrolled into Phase 1a of this study are subjects with the tumors of special interest including squamous cell carcinoma of the head and neck, colorectal cancer, non-small cell lung cancer, and transitional cell carcinoma of the bladder. […] All subjects in Phase 1b enrolled with clear cell renal cell carcinoma. The Phase 1a study followed a traditional 3+3 design. The starting dose level was 10 mg QD, escalating to 20, 40, 75, 125, and 150 mg QD as safety allows. All doses were administered in the fasting state with water at least 1 hour before food or at least 2 hours after food.
The Phase 1b dose-expansion was at a single dose level of 75 mg based on the safety, tolerability, PK/PD results from Phase 1a to obtain additional safety and preliminary efficacy information. Up to 30 subjects were enrolled in the Phase 1b portion of the study at the 75 mg dose. Replacement patients were enrolled as necessary. Subjects were dosed until unacceptable toxicity, disease progression per immune-related Response Evaluation Criteria in Solid Tumors, discontinuation of treatment for other protocol allowed reason (eg, subject refusal), any other administrative reasons, or after 2 years of treatment, whichever occurs first.
For scheduling purposes, dosing in Phase 1a and 1b occurred in 3 week cycles and computed tomography scans were conducted once every 6 weeks from Cycle 1/Day 1, with the first postbaseline scan after 6 weeks of dosing (precycle 3) until confirmed disease progression, death, start of new anticancer therapy, withdrawal of consent, or end of study, whichever occurs first.
Subjects of Phase 1a and 1b spent Cycle 1/Day 1 (C1D1) in the clinic followed by an optional overnight stay for safety monitoring and PK sampling. Subjects were hospitalized (optional) for administration of the first 2 doses: C1D1 and Cycle 1/Day 2 (C1D2). […]

[1] = 75 mg, multiple once daily oral 75 mg (N = 7), Cycle 1 Day 21, geometric mean
[2] = 75 mg, single oral dose 75 mg (N = 10), Cycle 1 Day 1, geometric mean
[3] = 125 mg, multiple once daily oral 125 mg (N = 1), Cycle 1 Day 21
[4] = 125 mg, single oral dose 125 mg (N = 6), Cycle 1 Day 1, geometric mean
[5] = single oral dose 10 mg (N = 3), Cycle 1 Day 1, geometric mean
[6] = single oral dose 20 mg (N = 3), Cycle 1 Day 1, geometric mean
[7] = single oral dose 40 mg (N = 11), Cycle 1 Day 1, geometric mean
[8] = single oral dose 75 mg (N = 10), Cycle 1 Day 1, geometric mean
[9] = single oral dose 125 mg (N = 6), Cycle 1 Day 1, geometric mean
[10] = multiple once daily oral 10 mg (N = 3), Cycle 1 Day 21, geometric mean
[11] = multiple once daily oral 20 mg (N = 3), Cycle 1 Day 21, geometric mean
[12] = multiple once daily oral 40 mg (N = 8), Cycle 1 Day 21, geometric mean
[13] = multiple once daily oral 75 mg (N = 7), Cycle 1 Day 21, geometric mean
[14] = multiple once daily oral 125 mg (N = 1), Cycle 1 Day 21

## CNC(=O)c1ncn2cc(-c3c(F)ccc(NS(=O)(=O)c4cc(Cl)cnc4OC)c3F)ncc12 [HC-7366, 6-(3-((5-chloro-2-methoxypyridine)-3-sulfonamido)-2,6-difluorophenyl)-N-methylimidazo[1,5-a]pyrazine-1-carboxamide]
40 mg, single oral dose 40 mg (N = 11), Cycle 1 Day 1, geometric mean, read-out: AUC0-24
  AUC(0-t): 52.9 µg·h/mL
40 mg, single oral dose 40 mg (N = 11), Cycle 1 Day 1, geometric mean, read-out: AUC0-last
  AUC(0-t): 52.9 µg·h/mL
40 mg, single oral dose 40 mg (N = 11), Cycle 1 Day 1, geometric mean
  Vd/F: 10.5 L
40 mg, single oral dose 40 mg (N = 11), Cycle 1 Day 1, median
  Tmax: 2 h
[1]
  Cmax: 14300 ng/mL
  half-life: 1070 min
  Vd/F: 9.51 L
75 mg, multiple once daily oral 75 mg (N = 7), Cycle 1 Day 21, geometric mean, read-out: AUC0-last
  AUC(0-t): 166 µg·h/mL
75 mg, multiple once daily oral 75 mg (N = 7), Cycle 1 Day 21, median
  Tmax: 2 h
[2]
  Cmax: 10200 ng/mL
  half-life: 912 min
  Vd/F: 11.2 L
75 mg, single oral dose 75 mg (N = 10), Cycle 1 Day 1, geometric mean, read-out: AUC0-24
  AUC(0-t): 100 µg·h/mL
75 mg, single oral dose 75 mg (N = 10), Cycle 1 Day 1, geometric mean, read-out: AUC0-last
  AUC(0-t): 100 µg·h/mL
75 mg, single oral dose 75 mg (N = 10), Cycle 1 Day 1, median
  Tmax: 2 h
[3]
  Cmax: 38200 ng/mL
  half-life: 990 min
  Vd/F: 7.4 L
125 mg, multiple once daily oral 125 mg (N = 1), Cycle 1 Day 21, read-out: AUC0-last
  AUC(0-t): 260 µg·h/mL
[4]
  Cmax: 18800 ng/mL
  half-life: 840 min
  Vd/F: 7.85 L
125 mg, single oral dose 125 mg (N = 6), Cycle 1 Day 1, geometric mean, read-out: AUC0-24
  AUC(0-t): 216 µg·h/mL
125 mg, single oral dose 125 mg (N = 6), Cycle 1 Day 1, geometric mean, read-out: AUC0-last
  AUC(0-t): 204 µg·h/mL
125 mg, single oral dose 125 mg (N = 6), Cycle 1 Day 1, median
  Tmax: 2 h
[5]
  % AUCextrap: 22.7%
  CL/F: 0.508 L/h
  DAUC0-24: 1510 ng·h/mL/mg
  DAUC0-last: 1510 ng·h/mL/mg
  DAUC0-∞: 1970 ng·h/mL/mg
  DCmax: 145 ng/mL/mg
  AUC(0-inf): 19700 ng·h/mL
Single oral dose 10 mg (N = 3), Cycle 1 Day 1, median
  tlast: 24.00 h
[6]
  % AUCextrap: 17.9%
  CL/F: 0.544 L/h
  DAUC0-24: 1440 ng·h/mL/mg
  DAUC0-last: 1440 ng·h/mL/mg
  DAUC0-∞: 1840 ng·h/mL/mg
  DCmax: 116 ng/mL/mg
  AUC(0-inf): 36800 ng·h/mL
Single oral dose 20 mg (N = 3), Cycle 1 Day 1, median
  tlast: 24.00 h
[7]
  % AUCextrap: 31.0%
  CL/F: 0.491 L/h
  DAUC0-24: 1320 ng·h/mL/mg
  DAUC0-last: 1320 ng·h/mL/mg
  DAUC0-∞: 2040 ng·h/mL/mg
  DCmax: 113 ng/mL/mg
  AUC(0-inf): 81500 ng·h/mL
Single oral dose 40 mg (N = 11), Cycle 1 Day 1, median
  tlast: 24.00 h
[8]
  % AUCextrap: 30.2%
  CL/F: 0.508 L/h
  DAUC0-24: 1340 ng·h/mL/mg
  DAUC0-last: 1340 ng·h/mL/mg
  DAUC0-∞: 1970 ng·h/mL/mg
  DCmax: 136 ng/mL/mg
  AUC(0-inf): 148000 ng·h/mL
Single oral dose 75 mg (N = 10), Cycle 1 Day 1, median
  tlast: 24.00 h
[9]
  % AUCextrap: 33.6%
  CL/F: 0.390 L/h
  DAUC0-24: 1730 ng·h/mL/mg
  DAUC0-last: 1630 ng·h/mL/mg
  DAUC0-∞: 2570 ng·h/mL/mg
  DCmax: 150 ng/mL/mg
  AUC(0-inf): 321000 ng·h/mL
Single oral dose 125 mg (N = 6), Cycle 1 Day 1, median
  tlast: 24.00 h
[10]
  LR: 1.11
  AUC: 21900 ng·h/mL
[11]
  LR: 1.14
  AUC: 41900 ng·h/mL
[12]
  LR: 1.11
  AUC: 99300 ng·h/mL
[13]
  LR: 1.22
  AUC: 187000 ng·h/mL
[14]
  LR: 0.759
  AUC: 401000 ng·h/mL
Of 34 treated subjects, 10 to 125 mg cohorts
  subjects who discontinued treatment due to an AE: 5 subjects

From patent publication US20260224563A1, “CRYSTALLINE FORMS OF 6-(3-((5-CHLORO-2-METHOXYPYRIDINE)-3-SULFONAMIDO)-2,6-DIFLUOROPHENYL)-N-METHYLIMIDAZO[1,5-A]PYRAZINE-1-CARBOXAMIDE AND METHODS FOR USING THE SAME” (HIBERCELL, INC., priority 2023, published 2026)
